Here are results for ten molecules from PubChem BioAssay AID652249 (Broad Institute, 2013).

Inconclusive results are not listed. Active and inactive are the calls of the source.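 The calls were made as follows: active = platelet aggregation inhibition above 50% relative to unstimulated and buffer-only controls; inactive = the rest, inconclusive results apart.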

The subject of the assay is human washed platelets, SFLLRN-induced aggregation, aggregometer. Description: blockade of human platelet clumping – cell-based, aggregometer, single point, dry powder samples, mechanism study for PDI inhibitor project, late-stage follow-up (AID 652249). The following applies: at 30 µM; active compounds read high.
For the molecule `CCOC(=O)C1(CCOc2ccccc2)CCN(Cc2ccc(O)cc2)CC1`, the aggregation inhibition (transmittance) is 0% (inactive). `CC(C)OC(=O)C1(CCOc2ccccc2)CCN(Cc2ccc(O)c(Cl)c2)CC1`: the aggregation inhibition (transmittance) was 97%.

As to `CCOC(=O)C1(CCOc2ccccc2)CCN(Cc2ccc(OC)c(Cl)c2)CC1`, the aggregation inhibition (transmittance) is 4% (inactive). Consider `O=C(NC1CCCC1)C1(CCOc2ccccc2)CCN(Cc2ccc(O)c(Cl)c2)CC1`, for which the aggregation inhibition (transmittance) is 1% (inactive). As for `C/C1=C\C[C@H](OC(=O)c2ccc(O)cc2)/C(C)=C/[C@@H](O)C(C)(C)CCC1`, the aggregation inhibition (transmittance) was 100%. For the molecule `CCN(C)C(=O)C1(CCOc2ccccc2)CCN(Cc2ccc(O)c(Cl)c2)CC1`, the aggregation inhibition (transmittance) was 2% (inactive). Regarding `CC(C)(C)OC(=O)C1(CCOc2ccccc2)CCN(Cc2ccc(O)c(Cl)c2)CC1`, the aggregation inhibition (transmittance) was 100%.

On to `O=C(Nc1ccccc1)C1(CCOc2ccccc2)CCN(Cc2ccc(O)c(Cl)c2)CC1`, for which the aggregation inhibition (transmittance) was 23% (inactive).

Regarding `C/C1=C\[C@@H](O)C(C)(C)CCCC2(C)OC2C[C@@H]1OC(=O)c1ccc(O)cc1` (stereo not given in full), the aggregation inhibition (transmittance) is 17% (inactive). To `CCOC(=O)C1(CCOc2ccccc2)CCN(C(=O)c2ccc(O)c(Cl)c2)CC1` belongs 100%.
